{"source": "patent US20090252816A1", "about": "“Inhalable Gaseous Medicament Based On Xenon And Nitrous Oxide” (AIR LIQUIDE SANTE (INRTERNATIONAL), priority 2003, published 2009)", "key": {"[1]": {"test_system": "sensitization to d-amphetamine", "experiment": "d-amphetamine sensitization protocol, locomotor activity in actimetry cages", "format": "in vivo, rat", "settings": "for blocking of the sensitization process (locomotor activity in d-amphetamine test on D7): remainder oxygen, 3 h after each d-amphetamine injection D1-D3; for concentration necessary to block the sensitization process: d-amphetamine sensitization", "experimental": "Male Sprague-Dawley rats weighing about 250 g were used in the experiments.\n(§1) 15 groups of animals (of 7 or 8 animals each) were used, including 10 groups during the actual sensitization studies and 5 other groups during the histological studies of the neurons of the posterior and retrosplenial cingulate cortices.\nThe animals were injected intraperitoneally (i.p.) for 3 consecutive days from D1 to D3 with d-amphetamine (Amph; 1 mg/ml/kg) or, depending on the case, with a saline solution (1 ml/kg) for the control animals.\nAfter each injection, the rats were immediately placed for 3 hours in a closed chamber, 100 liters in volume, flushed in dynamic regime with a constant flow rate of 5 l.min^−1, either with air (group 1: saline; group 2: Amph), or with 50% by volume of nitrous oxide (group 3: saline; group 4: Amph) or 75% (group 5: saline; group 6: Amph), or with 50% by volume of xenon (group 7: saline; group 8: Amph) or 75% (group 9: saline, group 10: Amph); the rest of the mixtures (remainder to 100%) being oxygen.\nThe locomotor activity of the animals of groups 1 to 10 was evaluated on D6, after an i.p. injection of a saline solution (1 ml/kg), and on D7 after an i.p. injection of d-amphetamine (1 mg/ml/kg). The locomotor activity of the animals in response to these injections was recorded using actimetry cages with photoelectric cells (Imétronic, Pessac. France).\nThe results obtained, given in the attached FIGS. 1 and 2, are expressed as the mean±standard error. The comparison of the groups was performed by means of nonparametric tests: Kruskall-Wallis analysis of variance, followed in the event of a significant result by the Mann-Whitney U test."}, "[2]": {"test_system": "dopamine release in the nucleus accumbens septi", "experiment": "dopamine release in slices of nucleus accumbens septi by differential pulse voltammetry", "format": "cell-based, rat", "experimental": "In addition, the preparation of the slices of nucleus accumbens septi was performed as follows. The animals were decapitated under mild anesthesia with halothane and the brain was then rapidly removed. Frontal sections of 300 μm, corresponding to an anteriority of +0.70/1.20 mm (according to Bregma, Paxinos and Watson, 1998) were taken using a chopper (Mickie Laboratory Engineering Company, Gomshall, Surrey, UK). The brain slices were placed for recovery in a buffered saline solution with a temperature of 3-4° C. for at least 1 hour before use for neurochemical study.\nThe measurement of the dopamine release was performed by the technique of normal differential pulse voltammetry using a single-fiber carbon electrode 10 μm in diameter and 250 μm long (CFN10-250; World Precision Instruments, Aston, Stevenage, Hertfordshire, UK). The electrochemical treatment enabling this type of electrode to be made sensitive to dopamine consisted in applying a continuous current of −1.5 V into a phosphate-buffered saline solution for 20 seconds, followed by a triangular current of +2.6 V also for 20 seconds on the working electrode (Brazell et al., 1987). Under these conditions, the dopaminergic signal appears at a potential of +100 mV.\nThe rat brain slices were then placed in an organ tank and infused with artificial cerebrospinal fluid having the composition: NaCl 118 mM, MgCl2 1.18 mM, KCl 4.9 mM, NaH2PO4 1.25 mM, CaCl2 1.25 mM, NaHCO3 3.6 mM, d-glucose 10 mM, HEPES 30 mM, pH 7.4, the temperature of which was maintained at 34±1° C. using a temperature controller (Delta 4 Culture Dish Controller, Bioptechs, Butler, Pa., USA). The electrode was placed under microscopic control (microscope EFN 600, Nikon, Paris, France), 100 μm from the anterior commissure, using an optical micrometer incorporated into the microscope, and then fully descended into the nucleus accumbens septi, at an angle of 45°, and connected to the Biopulse polarograph set in normal differential pulse voltammetry mode with the following parameters: scanning potential −150+350 mV; scanning time 0.4 s, scanning amplitude 4 mV, for a scanning speed of 10 mV.s^−1, 40 ms measuring pulse; 70 ms measuring prepulse; 30 mV measuring amplitude.\nThe dopaminergic hyperstimulation was induced by adding d-amphetamine to the infusion liquid. Medical air, nitrous oxide or xenon was dissolved, to saturation, before use in the infusion liquid, the pH of which was readjusted to 7.4."}, "[3]": {"test_system": "posterior and retrosplenial cingulate cortices", "experiment": "histological study of neurons of the posterior and retrosplenial cingulate cortices after repeated gas exposure", "format": "in vivo, rat", "settings": "for histological findings in posterior and retrosplenial cingulate cortices (neurotoxic effect): repeated exposure for 3 consecutive days", "experimental": "as §1\nIn order to identify the possible neurotoxic potential of repeated exposure (3 hours per day […]) to nitrous oxide or to xenon on the posterior and retrosplenial cingulate cortices, 5 additional groups of animals were pretreated, according to a protocol identical to that defined above, by administration of a saline solution, and then exposed either to air (group 11) or to 50% or 75% nitrous oxide (groups 12 and 13) or to 50% or 75% xenon (groups 14 and 15).\nTo do this, after treatment, the animals were sacrificed on D8 by decapitation under general anesthesia with halothane, and the cranium was then immediately placed in a paraformaldehyde solution for one week. The brain was removed, coated with paraffin and sectioned into frontal slices of 4 μm mounted on gelatinized slides and stained with a hemalun-eosin-saffron solution. The posterior and retrosplenial cingulate cortices were analyzed using an optical microscope (×400)."}, "[4]": {"test_system": "N-methyl-D-aspartate glutamatergic receptors", "settings": "in vitro; Franks et al. 1998, Jevtovic-Todorovic et al. 1998; cited from earlier work"}, "[5]": {"test_system": "glutamatergic receptors of AMPA type", "settings": "Yakamura and Harris, 2000; cited from earlier work"}, "weaning from alcohol": {"test_system": "weaning from alcohol", "settings": "Lichtigfeld and Gillman 1989; cited from earlier work"}, "[6]": {"experiment": "toxicity threshold of xenon stated for man", "settings": "in man"}, "[7]": {"settings": "gas at 50 vol % or 75 vol % (summary statement)"}}, "data": [{"smiles": "C[C@H](N)Cc1ccccc1.C[C@H](N)Cc1ccccc1.O=S(=O)(O)O", "note": "[d-amphetamine, d-amphetamine sulfate]", "values": [{"measurement": "locomotor activity in d-amphetamine test on D7, animals pretreated with d-amphetamine versus saline", "setting": "[1]; d-amphetamine 1 mg/ml/kg i.p. D1-D3, air", "result": "significantly higher"}, {"measurement": "dopamine signal relative to the measured basal signal", "setting": "[2]; d-amphetamine at 10^-5 M in infusion liquid", "result": "significant increase"}]}, {"smiles": "[N-]=[N+]=O", "note": "[nitrous oxide]", "values": [{"measurement": "locomotor activity in response to the saline test on D6 (long-term sedative effect)", "setting": "[1]; gas at 50 vol % or 75 vol %, rats", "result": "no significant difference"}, {"measurement": "blocking of the sensitization process (locomotor activity in d-amphetamine test on D7)", "setting": "[1]; gas at 50 vol %, rats", "result": "partial blocking"}, {"measurement": "blocking of the sensitization process (locomotor activity in d-amphetamine test on D7)", "setting": "[1]; gas at 75 vol %, rats", "result": "significant blocking"}, {"measurement": "concentration necessary to block the sensitization process", "setting": "[1]; rats", "result": 75, "unit": "vol %"}, {"measurement": "gas effect on acute d-amphetamine test at D7 in rats pretreated with saline solution", "setting": "[1]; saline-pretreated rats, nitrous oxide exposure D1-D3", "result": "no “gas” effect"}, {"measurement": "histological findings in posterior and retrosplenial cingulate cortices (neurotoxic effect)", "setting": "[3]; gas at 75 vol %", "result": "No similar effect"}, {"measurement": "increase in dopamine release induced with d-amphetamine", "setting": "[2]; [7]", "result": "block the increase"}, {"measurement": "increase in dopamine release induced with d-amphetamine", "setting": "[2]; gas at 75% by volume in the infusion liquid, d-amphetamine 10^-5 M", "result": "significantly reduced"}, {"measurement": "antagonist affinity for NMDA receptors", "setting": "[4]", "result": "low affinity"}, {"measurement": "effect on glutamatergic receptors of AMPA type", "setting": "[5]", "result": "no effect"}, {"measurement": "effect on weaning from alcohol", "setting": "weaning from alcohol", "result": "slightly better than the placebo effect"}]}, {"smiles": "[Xe]", "note": "[xenon]", "values": [{"measurement": "blocking of the sensitization process (locomotor activity in d-amphetamine test on D7)", "setting": "[1]; gas at 50 vol %, rats", "result": "blocking of the sensitization"}, {"measurement": "blocking of the sensitization process (locomotor activity in d-amphetamine test on D7)", "setting": "[1]; gas at 75 vol %, rats", "result": "blocking of the sensitization"}, {"measurement": "response to d-amphetamine on D7 in animals pretreated with saline solution", "setting": "[1]; gas at 75 vol %, versus air or xenon at 50 vol %", "result": "significant increase"}, {"measurement": "concentration necessary to block the sensitization process", "setting": "[1]; rats", "result": 50, "unit": "vol %"}, {"measurement": "histological findings in posterior and retrosplenial cingulate cortices (neurotoxic effect)", "setting": "[3]; gas at 50 vol %", "result": "No similar effect"}, {"measurement": "histological findings in posterior and retrosplenial cingulate cortices (neurotoxic effect)", "setting": "[3]; gas at 75 vol %", "result": "generalized cytoplasmic clarification"}, {"measurement": "toxicity threshold", "setting": "[3]; in rats", "result": "about 75%"}, {"measurement": "increase in dopamine release induced with d-amphetamine", "setting": "[2]; gas at 50% by volume in the infusion liquid, d-amphetamine 10^-5 M", "result": "significantly reduced"}, {"measurement": "increase in dopamine release induced with d-amphetamine", "setting": "[2]; [7]", "result": "block the increase"}, {"measurement": "toxicity threshold", "setting": "[6]", "result": "about 60%"}, {"measurement": "antagonist affinity for NMDA receptors", "setting": "[4]", "result": "low affinity"}, {"measurement": "effect on glutamatergic receptors of AMPA type", "setting": "[5]", "result": "no effect"}]}]}
